Patent US7384788B2, “Regulator/promoter for tunable gene expression and metabolite sensing” (priority 2003, dated 2008)
Read-outs that look alike come from different tables or passages of the source.

How the values were obtained:
[1] = biological target: BenM (Acinetobacter baylyi, UniProt O68014); details: benzoic acid alone; cited from earlier work
[2] = test system: yhcRQP-luxCDABE gene fusion; experiment: Bioluminescence activation test in strain DPD2411, LB medium pH 7.0; assay type: cell-based, E. coli; details: Experiment code A; for Concentration of maximum response: strain DPD2411, LB pH 7.0; for treated RLU: strain DPD2411, at concentration of maximum response; for Ratio: strain DPD2411, treated RLU/control RLU
From the text: (§1) A derivative of E. coli strain MG1655 (obtained from Prof. Douglas Berg, Washington University School of Medicine, St. Louis, […].) with the yhcS::TN<Kan> mutation was made by P1clr100Cm mediated transduction using phage grown on strain DPD2410 as a donor and selection for kanamycin resistance. The presence of the yhcS::TN<Kan> mutation in one of the resultant transductants, named DPD2433, was confirmed by PCR amplification. Plasmid pDEW655 was moved to E. coli strains MG1655 and DPD2433 by transformation, selecting for Ampicillin resistance to generate strains DPD2436 and DPD2437, respectively. The bioluminescent response of these two strains to pHBA was tested. Aliquots (50 μl) of actively growing cultures at 37° C. in LB medium that had been previously diluted, and from overnight cultures in LB medium with 150 μg/ml Ampicillin were added to 50 μl of LB medium at pH 7.0 containing pHBA as the sodium salt form. Several concentrations of pHBA were tested.
Further characterization of the signals that trigger activation of YhcS, was done using the yhcRQP-luxCDABE gene fusion containing E. coli strains DPD2411 or DPD2436. […] Several weak, aromatic acid molecules in addition to those shown in the Examples above activated expression.

[3] = test system: yhcRQP-luxCDABE gene fusion; experiment: Bioluminescence response in yhcS+ strain DPD2436 (MG1655 host); assay type: cell-based, E. coli; details: for Concentration of maximum response: strain DPD2436, LB pH 7.0; for treated RLU: strain DPD2436, at concentration of maximum response; for Ratio: strain DPD2436, treated RLU/control RLU
From the text: as §1, with “The presence of the yhcS::TN<Kan> mutation in one of the resultant transductants, named DPD2433, was confirmed by PCR amplification.” left out
Further characterization of the signals that trigger activation of YhcS, was done using the yhcRQP-luxCDABE gene fusion containing E. coli strains DPD2411 or DPD2436.

[4] = test system: lysU-luxCDABE gene fusion; details: for activation of acid responsive lysU-luxCDABE gene fusion (in words): concentrations tested, 100 minutes; for RLU at 100 minutes: lysU-luxCDABE, pH 7.0
From the text: (§2) Three E. coli strains, each in the same host strain but carrying different, plasmid-borne, promoter-luxCDABE fusions were used. Strain DPD2411 contains a yhcRQP-luxCDABE gene fusion as described in Example 2. Strain DPD2084 contains a yciG-luxCDABE gene fusion that has been previously described. Strain DPD3282 contains a lysU-luxCDABE gene fusion that was part of the LuxA collection of gene fusions, described in Example 2. The plasmid in this strain, pDEW558, contains an E. coli chromosomal segment between nucleotides 4350990 and 4353107 according to the E. coli genomic sequence; the orientation of the chromosomal segment is such that the lysU promoter region controls expression of luxCDABE. Each of these three strains was grown overnight in Vogel-Bonner minimal medium with 0.4% glucose as the carbon source and supplemented with L-proline, L-lysine, uracil and 25 μg/ml Ampicillin. The overnight cultures were diluted into the same medium except lacking Ampicillin and incubated at 37° C. until in mid-exponential growth. Aliquots (50 μl) of these actively growing cultures were added to 50 μl of the same medium at pH 7.0 without Ampicillin but containing various concentrations of sodium acetate or sodium salicylate in the wells of a 96 well, white microplate (Microlite, Dynex Technologies). Immediately after adding the cell culture, the bioluminescence was quantitated in a microplate luminometer in the kinetic mode.

[5] = test system: yhcRQP-luxCDABE gene fusion; details: for activation of expression of yhcRQP-luxCDABE (in words): concentrations tested, 100 minutes; for RLU at 100 minutes: yhcRQP-luxCDABE, pH 7.0
From the text: as §2

[6] = test system: yciG-luxCDABE gene fusion; details: for activation of acid responsive yciG-luxCDABE gene fusion (in words): concentrations tested, 100 minutes; for RLU at 100 minutes: yciG-luxCDABE, pH 7.0
From the text: as §2

[7] = test system: yhcRQP-luxCDABE gene fusion; experiment: LuxArray bioluminescent response, strain DPD2411 (tolC- host); assay type: cell-based, E. coli; details: for Replica 1 normalized RLU / Replica 2 normalized RLU: LB medium; for upregulation of gene fusion lux-a.pk035.c7 in LuxArray profile: pHCA 10 mM and 5 mM, CA 8 mM and 4 mM; for bioluminescent response of the yhcRQP-luxCDABE gene fusion (in words): time points other than the zero time point

Chain of BenM (O68014 whole entry, the tested form may be a part): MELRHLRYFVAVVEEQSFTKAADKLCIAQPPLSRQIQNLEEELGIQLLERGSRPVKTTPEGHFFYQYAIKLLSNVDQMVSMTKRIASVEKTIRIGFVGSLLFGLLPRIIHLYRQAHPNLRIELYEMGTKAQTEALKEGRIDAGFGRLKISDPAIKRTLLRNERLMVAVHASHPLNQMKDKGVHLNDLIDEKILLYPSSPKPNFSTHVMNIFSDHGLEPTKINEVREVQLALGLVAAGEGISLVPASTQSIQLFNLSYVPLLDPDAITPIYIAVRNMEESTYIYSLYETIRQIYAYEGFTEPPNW

SMILES: O=C(O)c1ccccc1 [Benzoic acid, benzoic acid]
- induction of BenM activity [1]: minimal, if any, induction

SMILES: O=C(O)c1cccc2ccccc12 [1-napthoate]
- Concentration of maximum response [2]: 2.5 mM
- treated RLU [2]: 29.662 RLU
- Ratio [2]: 132

SMILES: O=C([O-])c1ccccc1O.[Na+] [Sodium salicylate]
- Concentration of maximum response ([3]; Experiment code D): 6.2 mM
- treated RLU ([3]; Experiment code D): 14.703 RLU
- Ratio ([3]; Experiment code D): 77
- activation of acid responsive lysU-luxCDABE gene fusion (in words) [4]: did not increase expression
- RLU at 100 minutes ([4]; 0.6 mM salicylate): 1.3 RLU
- RLU at 100 minutes ([4]; 5.0 mM salicylate): 0.89 RLU
- activation of expression of yhcRQP-luxCDABE (in words) [5]: upregulated expression
- RLU at 100 minutes ([5]; 0.6 mM salicylate): 7.9 RLU
- RLU at 100 minutes ([5]; 5.0 mM salicylate): 26.0 RLU
- activation of acid responsive yciG-luxCDABE gene fusion (in words) [6]: did not increase expression
- RLU at 100 minutes ([6]; 0.6 mM salicylate): 0.19 RLU
- RLU at 100 minutes ([6]; 5.0 mM salicylate): 0.13 RLU

SMILES: O=C(O)C=Cc1ccccc1 [CA, cinnamic acid]
- Replica 1 normalized RLU ([7]; 4 mM CA, 0 min): 0.026 RLU
- Replica 2 normalized RLU ([7]; 4 mM CA, 0 min): 0.062 RLU
- Replica 1 normalized RLU ([7]; 4 mM CA, 45 min): 4.092 RLU
- Replica 2 normalized RLU ([7]; 4 mM CA, 45 min): 2.928 RLU
- Replica 1 normalized RLU ([7]; 4 mM CA, 90 min): 5.845 RLU
- Replica 2 normalized RLU ([7]; 4 mM CA, 90 min): 4.951 RLU
- Replica 1 normalized RLU ([7]; 4 mM CA, 135 min): 5.394 RLU
- Replica 2 normalized RLU ([7]; 4 mM CA, 135 min): 3.678 RLU
- Replica 1 normalized RLU ([7]; 8 mM CA, 0 min): 0.022 RLU
- Replica 2 normalized RLU ([7]; 8 mM CA, 0 min): 0.054 RLU
- Replica 1 normalized RLU ([7]; 8 mM CA, 45 min): 4.937 RLU
- Replica 2 normalized RLU ([7]; 8 mM CA, 45 min): 3.405 RLU
- Replica 1 normalized RLU ([7]; 8 mM CA, 90 min): 8.379 RLU
- Replica 2 normalized RLU ([7]; 8 mM CA, 90 min): 6.193 RLU
- Replica 1 normalized RLU ([7]; 8 mM CA, 135 min): 6.981 RLU
- Replica 2 normalized RLU ([7]; 8 mM CA, 135 min): 5.746 RLU
- upregulation of gene fusion lux-a.pk035.c7 in LuxArray profile [7]: several hundred-fold upregulated
- bioluminescent response of the yhcRQP-luxCDABE gene fusion (in words) [7]: dramatic upregulation

SMILES: O=C(O)C=Cc1ccc(O)cc1 [pHCA, para-hydroxycinnamic acid]
- Replica 1 normalized RLU ([7]; 5 mM pHCA, 0 min): 0.056 RLU
- Replica 2 normalized RLU ([7]; 5 mM pHCA, 0 min): 0.043 RLU
- Replica 1 normalized RLU ([7]; 5 mM pHCA, 45 min): 10.695 RLU
- Replica 2 normalized RLU ([7]; 5 mM pHCA, 45 min): 9.325 RLU
- Replica 1 normalized RLU ([7]; 5 mM pHCA, 90 min): 14.276 RLU
- Replica 2 normalized RLU ([7]; 5 mM pHCA, 90 min): 14.754 RLU
- Replica 1 normalized RLU ([7]; 5 mM pHCA, 135 min): 13.533 RLU
- Replica 2 normalized RLU ([7]; 5 mM pHCA, 135 min): 10.587 RLU
- Replica 1 normalized RLU ([7]; 10 mM pHCA, 0 min): 0.056 RLU
- Replica 2 normalized RLU ([7]; 10 mM pHCA, 0 min): 0.034 RLU
- Replica 1 normalized RLU ([7]; 10 mM pHCA, 45 min): 9.094 RLU
- Replica 2 normalized RLU ([7]; 10 mM pHCA, 45 min): 7.31 RLU
- Replica 1 normalized RLU ([7]; 10 mM pHCA, 90 min): 14.314 RLU
- Replica 2 normalized RLU ([7]; 10 mM pHCA, 90 min): 11.164 RLU
- Replica 1 normalized RLU ([7]; 10 mM pHCA, 135 min): 15.283 RLU
- Replica 2 normalized RLU ([7]; 10 mM pHCA, 135 min): 12.867 RLU
- upregulation of gene fusion lux-a.pk035.c7 in LuxArray profile [7]: several hundred-fold upregulated
- bioluminescent response of the yhcRQP-luxCDABE gene fusion (in words) [7]: dramatic upregulation

SMILES: O=C([O-])c1ccccc1.[Na+] [Sodium benzoate]
- Concentration of maximum response ([3]; Experiment code B): 6.2 mM
- treated RLU ([3]; Experiment code B): 3.759 RLU
- Ratio ([3]; Experiment code B): 13
- Concentration of maximum response ([3]; Experiment code C): 12.5 mM
- treated RLU ([3]; Experiment code C): 8.093 RLU
- Ratio ([3]; Experiment code C): 12

SMILES: O=C([O-])c1ccc(O)cc1.[Na+] [Sodium pHBA]
- Concentration of maximum response [2]: 25 mM
- treated RLU [2]: 69.678 RLU
- Ratio [2]: 302
- Concentration of maximum response ([3]; Experiment code C): 50 mM
- treated RLU ([3]; Experiment code C): 91.658 RLU
- Ratio ([3]; Experiment code C): 145
- Concentration of maximum response ([3]; Experiment code D): 50 mM
- treated RLU ([3]; Experiment code D): 48.643 RLU
- Ratio ([3]; Experiment code D): 248

SMILES: CCO [ethanol]
- Replica 1 normalized RLU ([7]; 3% ethanol, 0 min): 0.024 RLU
- Replica 2 normalized RLU ([7]; 3% ethanol, 0 min): 0.038 RLU
- Replica 1 normalized RLU ([7]; 3% ethanol, 45 min): 0.024 RLU
- Replica 2 normalized RLU ([7]; 3% ethanol, 45 min): 0.029 RLU
- Replica 1 normalized RLU ([7]; 3% ethanol, 90 min): 0.022 RLU
- Replica 2 normalized RLU ([7]; 3% ethanol, 90 min): 0.026 RLU
- Replica 1 normalized RLU ([7]; 3% ethanol, 135 min): 0.012 RLU
- Replica 2 normalized RLU ([7]; 3% ethanol, 135 min): 0.014 RLU
- Replica 1 normalized RLU ([7]; 5% ethanol, 0 min): 0.022 RLU
- Replica 2 normalized RLU ([7]; 5% ethanol, 0 min): 0.037 RLU
- Replica 1 normalized RLU ([7]; 5% ethanol, 45 min): 0.014 RLU
- Replica 2 normalized RLU ([7]; 5% ethanol, 45 min): 0.017 RLU
- Replica 1 normalized RLU ([7]; 5% ethanol, 90 min): 0.022 RLU
- Replica 2 normalized RLU ([7]; 5% ethanol, 90 min): 0.017 RLU
- Replica 1 normalized RLU ([7]; 5% ethanol, 135 min): 0.015 RLU
- Replica 2 normalized RLU ([7]; 5% ethanol, 135 min): 0.014 RLU
- bioluminescent response of the yhcRQP-luxCDABE gene fusion (in words) [7]: does not induce increased bioluminescence

SMILES: CC(=O)[O-].[Na+] [acetate, sodium acetate]
- activation of acid responsive lysU-luxCDABE gene fusion (in words) [4]: did activate
- RLU at 100 minutes ([4]; 80 mM acetate): 1.4 RLU
- RLU at 100 minutes ([4]; 160 mM acetate): 6.0 RLU
- activation of expression of yhcRQP-luxCDABE (in words) [5]: did not activate expression
- RLU at 100 minutes ([5]; 80 mM acetate): 0.14 RLU
- RLU at 100 minutes ([5]; 160 mM acetate): 0.08 RLU
- activation of acid responsive yciG-luxCDABE gene fusion (in words) [6]: did activate
- RLU at 100 minutes ([6]; 80 mM acetate): 0.35 RLU
- RLU at 100 minutes ([6]; 160 mM acetate): 0.80 RLU
